From patent US11214803B2, “Modulators of YAP1 expression” (Ionis Pharmaceuticals, Inc., priority 2019, dated 2022)
Strand notation (5' to 3'): a small letter for the sugar, then the base; units joined by * are phosphorothioate-linked, units joined directly phosphodiester-linked; [ ] holds rarer units or linkages, { } end groups; capitals alone tell only the bases. e = 2'-O-(2-methoxyethyl) (MOE); k = constrained ethyl (cEt); [5mC] = 5-methylcytosine; d = 2'-deoxy (DNA); m = 2'-O-methyl

Test system: Yap1 mRNA
Test: Antisense inhibition of human Yap1 in SNU-449 cells by modified oligonucleotides, single dose (Example 5, RTS36584)
Assay type: cell-based
Summary of the method: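 SNU-449 cells were given 2,000 nM oligonucleotide by free uptake for about 48 h. Yap1 mRNA was then measured by RT-qPCR with primer probe set RTS36584, normalized to total RNA by RIBOGREEN and expressed as percent of untreated control.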

[1] = Table 40 (separate experiment), SNU-449 cells, 10,000 cells per well, free uptake, 2,000 nM oligonucleotide, approx. 48 hours, RTS36584, normalized to RIBOGREEN, Yap1 mRNA relative to untreated control
[2] = Table 45, Yap1 mRNA as percent of untreated control, SNU-449 cells, single dose
[3] = Table 41, SNU-449 cells, 10,000 cells per well, free uptake, 2,000 nM modified oligonucleotide, approximately 48 hours, RTS36584, normalized to RIBOGREEN, Yap1 mRNA relative to untreated control cells
[4] = Table 48, Yap1 mRNA level relative to untreated control, modified oligonucleotides targeting SEQ ID NO.: 1 and 2
[5] = Table 51, Yap1 mRNA remaining as percent of untreated control (UT), SNU-449 cells, single dose
[6] = Table 46, Yap1 mRNA as percent of untreated control, SNU-449 cells, single dose
[7] = Table 44 experiment, SNU-449 cells, 10,000 cells per well, free uptake, 2,000 nM, approximately 48 hours, RTS36584, Yap1 mRNA normalized to RIBOGREEN, relative to untreated control cells
[8] = Table 43 experiment, SNU-449 cells, 10,000 cells per well, free uptake, 2,000 nM, approximately 48 hours, RTS36584, Yap1 mRNA normalized to RIBOGREEN, relative to untreated control cells
[9] = Yap1 mRNA, percent of untreated control, modified oligonucleotides targeting SEQ ID NO: 1 and 2, Table 47
[10] = Table 52, Yap1 mRNA, modified oligonucleotides targeting SEQ ID NO: 1 and 2

1198767 (kA*eT*kT*d[5mC]*dA*dG*dA*dT*dT*dT*dA*dG*eG*eA*kT*kG; antisense) [Compound 1198767]
YAP1 (% UTC) [1]: 65 % UTC

1198969 (kA*kA*dG*dT*dA*dA*dG*dG*dT*dT*dT*k[5mC]*d[5mC]*k[5mC]*dA*kG; antisense) [Compound 1198969]
YAP1 (% UTC) [2]: 31 % UTC

1198773 (kA*e[5mC]*kT*d[5mC]*dT*dT*dA*dT*dA*dT*dG*dG*eT*eT*kT*kT; antisense) [Compound 1198773]
YAP1 (% UTC) [3]: 58 % UTC

1198644 (kT*kA*dT*dA*dT*dT*dA*dG*dA*dG*dT*dA*kT*eG*kT*eG; antisense) [Compound 1198644]
YAP1 (% UTC) [3]: 73 % UTC

1198407 (kT*dG*d[5mC]*dT*dT*dT*dG*dG*dA*dA*dG*kA*eT*k[5mC]*eT*kG; antisense) [Compound 1198407]
YAP1 (% UTC) (Table 39, SNU-449 cells, 10,000 cells per well, free uptake, 2,000 nM oligonucleotide, approx. 48 hours, RTS36584, normalized to RIBOGREEN, Yap1 mRNA relative to untreated control): 23 % UTC

1198673 (antisense kG*kA*dT*dT*dT*dA*dG*dG*dA*dT*dG*d[5mC]*kA*eT*kG*eG) [Compound 1198673]
YAP1 (% UTC) [3]: 10 % UTC

1009396 (k[5mC]*kA*k[5mC]*dT*dG*dA*dG*dG*dT*dA*dT*dA*dA*k[5mC]*kT*kG; antisense) [Compound 1009396]
YAP1 (% UT) [4]: 41 % UT

1198659 (antisense kT*kT*dA*dA*dG*d[5mC]*dA*d[5mC]*dT*dT*dT*dT*kA*e[5mC]*kA*eT) [Compound 1198659]
YAP1 (% UTC) [3]: 58 % UTC

1197271 (kT*kT*kT*dA*mA*dA*dG*dT*dG*dT*dA*dT*dG*kT*k[5mC]*kA) [Compound 1197271]
YAP1 (% UT) [5]: 12 % UT

1198938 (kT*k[5mC]*dA*dG*dA*dT*dT*dT*dA*dG*dG*kA*dT*kG*d[5mC]*kA; antisense) [Compound 1198938]
YAP1 (% UTC) [2]: 59 % UTC

1198812 (antisense kA*kT*dA*dT*dG*dG*dA*dA*dA*dT*dT*kG*eT*k[5mC]*eT*k[5mC]) [Compound 1198812]
YAP1 (% UT) [6]: 26 % UT

1198714 (kT*eG*kT*d[5mC]*dT*d[5mC]*dA*dT*dG*d[5mC]*d[5mC]*dT*eT*eA*kT*kA; antisense) [Compound 1198714]
YAP1 (% UTC) [1]: 20 % UTC

1197237 (antisense kT*kA*kT*dA*mA*d[5mC]*dT*dG*dG*dG*d[5mC]*dA*dA*kA*kT*kT) [Compound 1197237]
YAP1 (% UT) [5]: 74 % UT

1198500 (kA*kT*dT*dT*dA*dG*dG*dA*dT*dG*d[5mC]*eA*kT*eG*kG*eT; antisense) [Compound 1198500]
YAP1 (% UTC) [7]: 17 % UTC

1197308 (kA*kA*kT*dA*mU*dT*dG*d[5mC]*dA*dA*dT*d[5mC]*dT*kG*kT*k[5mC]; antisense) [Compound 1197308]
YAP1 (% UT) [5]: 49 % UT

1198681 (antisense T_{ks}C_{ks}T_{ds}T_{ds}A_{ds}T_{ds}A_{ds}T_{ds}G_{ds}G_{ds}T_{ds}T_{ds}T_{ks}T_{es}G_{ks}T_{e}; as printed in the source, key not given here) [Compound 1198681]
YAP1 (% UTC) (Table 42 (separate experiment), SNU-449 cells, 10,000 cells per well, free uptake, 2,000 nM modified oligonucleotide, approximately 48 hours, RTS36584, normalized to RIBOGREEN, Yap1 mRNA relative to untreated control cells): 54 % UTC

1198274 (kA*kA*d[5mC]*dT*dT*dT*dA*dA*dA*dG*dT*eG*eT*eA*kT*kG; antisense) [Compound 1198274]
YAP1 (% UTC) [8]: 69 % UTC

1074462 (kG*kG*kA*dA*dA*dT*dT*dG*dT*d[5mC]*dT*d[5mC]*dA*kT*kG*k[5mC]; antisense) [Compound 1074462]
YAP1 (% UT) [9]: 7 % UT

1198960 (kA*kA*dG*dT*dG*dT*dA*dT*dG*dT*d[5mC]*kA*dG*kA*dA*kG; antisense) [Compound 1198960]
YAP1 (% UTC) [2]: 6 % UTC

1197314 (kA*kA*kA*dG*mU*dG*dT*dA*dT*dG*dT*d[5mC]*dA*kG*kA*kA; antisense) [Compound 1197314]
YAP1 (% UT) [5]: 22 % UT

1200785 (kA*kT*kT*dG*dT*mC*dT*d[5mC]*dA*dT*dG*d[5mC]*d[5mC]*kT*kT*kA; antisense) [Compound 1200785]
YAP1 (% UT) [5]: 15 % UT

1200807 (k[5mC]*kT*kG*dA*dG*mG*dT*dA*dT*dA*dA*d[5mC]*dT*kG*kG*kG; antisense) [Compound 1200807]
YAP1 (% UT) [10]: 69 % UT

1197258 (antisense kA*kT*kT*d[5mC]*mA*dG*dA*dT*dT*dT*dA*dG*dG*kA*kT*kG) [Compound 1197258]
YAP1 (% UT) [5]: 57 % UT

1198536 (kT*kA*dA*dG*dT*dA*dA*dG*dG*dT*dT*eT*k[5mC]*e[5mC]*k[5mC]*eA; antisense) [Compound 1198536]
YAP1 (% UTC) [7]: 20 % UTC

1198865 (kA*kA*dT*dA*dT*dT*dG*d[5mC]*dA*dA*dT*k[5mC]*eT*kG*eT*k[5mC]; antisense) [Compound 1198865]
YAP1 (% UT) [6]: 38 % UT

1198243 (kG*kA*dT*dT*dT*dA*dG*dG*dA*dT*dG*e[5mC]*eA*eT*kG*kG; antisense) [Compound 1198243]
YAP1 (% UTC) [8]: 8 % UTC

1198839 (k[5mC]*kT*dT*dT*dG*dG*dA*dA*dG*dA*dT*k[5mC]*eT*kG*eA*kA; antisense) [Compound 1198839]
YAP1 (% UT) [6]: 36 % UT

1198614 (antisense kT*kA*kA*dA*dG*dT*dG*dT*dA*dT*dG*dT*k[5mC]*kA*kG*eA) [Compound 1198614]
YAP1 (% UT) (Table 50, Yap1 mRNA remaining as percent of untreated control (UT), SNU-449 cells, single dose): 4 % UT

1009394 (kT*kA*kT*dA*dA*d[5mC]*dT*dG*dG*dG*d[5mC]*dA*dA*kA*kT*kT; antisense) [Compound 1009394]
YAP1 (% UT) [9]: 73 % UT

1198755 (kT*eG*k[5mC]*dT*dT*dT*dG*dG*dA*dA*dG*dA*eT*e[5mC]*kT*kG) [Compound 1198755]
YAP1 (% UTC) [1]: 32 % UTC

1197274 (kA*kG*kT*dA*mA*dG*dG*dT*dT*dT*d[5mC]*d[5mC]*d[5mC]*kA*kG*kA) [Compound 1197274]
YAP1 (% UT) [5]: 31 % UT

1198782 (antisense kT*eG*kT*dA*dA*dT*dA*dT*dT*dG*d[5mC]*dA*eA*eT*k[5mC]*kT) [Compound 1198782]
YAP1 (% UTC) [1]: 61 % UTC

1198892 (kA*kA*dT*dT*dG*dT*d[5mC]*dT*d[5mC]*dA*dT*kG*d[5mC]*k[5mC]*dT*kT) [Compound 1198892]
YAP1 (% UTC) [7]: 24 % UTC

1198567 (antisense k[5mC]*kT*kT*dT*dT*dA*d[5mC]*dA*dT*dT*dA*dG*kG*kA*kA*e[5mC]) [Compound 1198567]
YAP1 (% UT) (Table 49, Yap1 mRNA level relative to untreated control, modified oligonucleotides targeting SEQ ID NO.: 1 and 2): 54 % UT

1198735 (kG*eA*kG*dG*dT*dA*dT*dA*dA*d[5mC]*dT*dG*eG*eG*k[5mC]*kA; antisense) [Compound 1198735]
YAP1 (% UTC) [3]: 34 % UTC

1197307 (kA*kT*kA*dT*mU*dG*d[5mC]*dA*dA*dT*d[5mC]*dT*dG*kT*k[5mC]*kT; antisense) [Compound 1197307]
YAP1 (% UT) [5]: 88 % UT

1198286 (kA*kA*kT*dT*dG*dT*d[5mC]*dT*d[5mC]*dA*dT*dG*k[5mC]*e[5mC]*kT*eT; antisense) [Compound 1198286]
YAP1 (% UT) [4]: 17 % UT

1197277 (kA*k[5mC]*kT*dA*mA*dG*dT*dA*dA*dG*dG*dT*dT*kT*k[5mC]*k[5mC]) [Compound 1197277]
YAP1 (% UT) [5]: 23 % UT

1198790 (antisense kT*eA*kA*dA*dG*dT*dG*dT*dA*dT*dG*dT*e[5mC]*eA*kG*kA) [Compound 1198790]
YAP1 (% UTC) [3]: 27 % UTC

1198879 (k[5mC]*kT*dT*dT*dA*dA*dA*dG*dT*dG*dT*kA*eT*kG*eT*k[5mC]; antisense) [Compound 1198879]
YAP1 (% UT) [9]: 29 % UT

1198765 (k[5mC]*eA*kG*dA*dT*dT*dT*dA*dG*dG*dA*dT*eG*e[5mC]*kA*kT) [Compound 1198765]
YAP1 (% UTC) [1]: 23 % UTC

1197182 (antisense kT*kT*kT*dT*dA*d[5mC]*dA*dT*dT*dA*dG*dG*dA*kA*k[5mC]*kA) [Compound 1197182]
YAP1 (% UT) [9]: 115 % UT

1198484 (antisense kG*k[5mC]*dA*d[5mC]*dT*dT*dT*dT*dA*d[5mC]*dA*eT*kT*eA*kG*eG) [Compound 1198484]
YAP1 (% UTC) [8]: 18 % UTC

1198901 (kT*kA*dG*dA*dG*dT*dA*dT*dG*dT*dG*kG*d[5mC]*kA*dA*kT; antisense) [Compound 1198901]
YAP1 (% UTC) [7]: 28 % UTC

1200846 (kG*kA*k[5mC]*dA*dA*mC*dT*d[5mC]*dT*dT*dA*dT*dA*kT*kG*kG; antisense) [Compound 1200846]
YAP1 (% UT) [10]: 38 % UT
